Reference: patent EP0298135A1, “Phenylalanine derivative and proteinase inhibitor” (Okamoto, Shosuke, priority 1987, dated 1989)

Assays:
Assay type in all cases: biochemical
human plasmin [1] = target: T1, human plasmin (Homo sapiens, UniProt P00747); test: Antiplasmin activity: inhibition of fibrin decomposition; details: Table 2; concentration at which fibrin dissolution time is extended twice, pH 7.4, 37°C; read-out: Plasmin Fibrin (concentration I₅₀)
Procedure: (i) Determination of inhibition activity on fibrin decomposition
An inhibitor sample is dissolved in a 0.l8 M borate-physiological salt buffer solution (pH = 7.4) to bring the total volume to 600 µl. To this buffer solution, 200 µl of a 0.2% bovine fibrinogen, l00 µl of a 0.3 casein unit/ml human plasmin solution, and l00 µl of a 50 unit/ml bovine thrombin solution, all dissolved in the above-mentioned buffer, are added at a temperature of 37°C in a constant temperature bath. The dissolution time of the fibrin mass formed above is then determined.

human plasmin [2] = target: T1, human plasmin; test: Antiplasmin activity: inhibition of S-2251 decomposition; details: Table 2; substrate S-2251, pH 7.4, 37°C; read-out: Plasmin S-2251 (concentration I₅₀)
Procedure: (ii) Determination of inhibition activity on S-225l decomposition
An inhibitor sample is dissolved in a 0.05 M Tris-hydrochloric acid buffer solution (pH = 7.4) to bring the total volume to 400 µl. To this solution, 50 µl of a 3 mM S-225l solution is added and the mixture is incubated at a temperature of 37°C for 5 minutes in a constant temperature bath. Then 50 µl of a 0.2 casein unit/ml human plasmin is added and the mixture is incubated at a temperature of 37°C for 4 minutes. Thereafter, the reaction is stopped by adding 50 µl of 50% acetic acid.
Thus, the concentration I₅₀ (µmol) of the inhibitor sample, at which the absorbance is one half (i.e., l/2) of that obtained in the absence of the inhibitor, is determined.

bovine thrombin [3] = target: T2, bovine thrombin (Bos taurus, UniProt P00735); test: Antithrombin activity: inhibition of S-2238 decomposition
Procedure: (ii) Determination of inhibition activity on S-2238 decomposition
An inhibitor sample is dissolved in a 0.05 M Tris-hydrochloric acid buffer solution (pH = 8.3) to bring the a total volume to 400 µl. To this solution, 50 µl of a 0.2 mM S-2238 solution is added and the mixture is incubated at a temperature of 37°C for 5 minutes in a constant temperature bath. Then 50 µl of a 0.2 unit/ml bovine thrombin solution is added thereto and the absorbance, at 405 nm, of the p-nitroaniline formed per minute is determined at a temperature of 37°C by using the so-called initial velocity method. Thus, the concentration I₅₀ (µmol) of the inhibitor sample, at which the absorbance is one half (i.e., l/2) of that obtained in the absence of the inhibitor sample, is determined.

human urokinase = human urokinase (Homo sapiens, UniProt P00749); test: Antiurokinase activity: inhibition of S-2444 decomposition; details: Table 2; substrate S-2444, pH 8.8, 37°C; read-out: Urokinase S-2444 (concentration I₅₀)
Procedure: Determination of inhibition activity for S-2444 decomposition
An inhibitor sample is dissolved in a 0.05 M Tris-hydrochloric acid buffer solution (pH = 8.8) to bring the total volume to 400 µl. To this solution, 50 µl of a l mM S-2444 solution is added and the mixture is incubated at a temperature of 37°C for 5 minutes in a constant temperature bath. Then 50 µl of a 500 unit/ml human urokinase is added and the mixture is incubated at a temperature of 37°C for 5 minutes. Thereafter, 50 µl of 50% acetic acid is added to terminate the reaction. The absorbance of the p-nitroaniline formed in the reaction mixture is measured at 405 nm. Thus, the concentration I₅₀ (µmol) of the inhibitor sample, at which the absorbance is one half (i.e., l/2) of that obtained in the absence of the inhibitor sample, is determined.

bovine thrombin [4] = target: T2, bovine thrombin; test: Antithrombin activity: inhibition of fibrin formation from fibrinogen
Procedure: (i) Determination of inhibition activity against fibrin formation
An inhibitor sample is dissolved in a 0.l8 M borate-physiological salt buffer solution (pH = 7.4) to bring the total volume to 500 µl. To this solution, 400 µl of a 0.2% bovine fibrinogen solution and l00 µl of a 4 unit/ml bovine thrombin solution are added at a temperature of 37°C in a constant temperature bath. Thus, a coagulation time is determined. The inhibitor concentration I₅₀ (µmol), at which the coagulation time obtained in the absence of the inhibitor is extended twice, is determined.

human plasma kallikrein = human plasma kallikrein (Homo sapiens, UniProt P03952); test: Anti-plasma kallikrein activity: inhibition of S-2302 decomposition; details: Table 2; substrate S-2302, pH 7.8, 37°C; read-out: Plasma Kallikrein S-2302 (concentration I₅₀)
human plasma kallikrein, sequence (P03952 391-638 limits assumed): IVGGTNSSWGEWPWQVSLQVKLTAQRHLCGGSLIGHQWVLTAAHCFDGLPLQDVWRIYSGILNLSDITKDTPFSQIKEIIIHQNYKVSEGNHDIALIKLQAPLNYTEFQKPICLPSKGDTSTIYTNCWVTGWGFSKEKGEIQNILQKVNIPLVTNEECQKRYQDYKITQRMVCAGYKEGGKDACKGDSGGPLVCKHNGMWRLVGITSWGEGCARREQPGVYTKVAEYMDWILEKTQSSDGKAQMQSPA
human plasma kallikrein, sequence (P03952 20-390 partner limits assumed): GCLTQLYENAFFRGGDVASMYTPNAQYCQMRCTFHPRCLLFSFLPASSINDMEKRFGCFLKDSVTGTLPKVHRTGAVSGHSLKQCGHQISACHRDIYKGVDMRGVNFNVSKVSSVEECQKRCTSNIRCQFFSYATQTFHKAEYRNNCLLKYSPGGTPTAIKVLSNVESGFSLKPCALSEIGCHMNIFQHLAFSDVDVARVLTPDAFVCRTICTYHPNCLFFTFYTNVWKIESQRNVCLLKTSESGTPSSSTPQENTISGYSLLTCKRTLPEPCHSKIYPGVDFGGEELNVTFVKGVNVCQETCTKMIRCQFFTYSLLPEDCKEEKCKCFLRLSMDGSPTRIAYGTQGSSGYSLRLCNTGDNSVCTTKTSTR
Procedure: An inhibitor sample is dissolved in a 0.05 M Tris-hydrochloric acid buffer solution (pH = 7.8) to bring the total volume to 400 µl. […] Then, 50 µl of a 0.l2 unit/ml human plasma kallikrein is added and the mixture is incubated at a temperature of 37°C for 5 minutes. Thereafter, 50 µl of 50% acetic acid is added to terminate the reaction. […] Thus, the concentration I₅₀ (µmol) of the inhibitor sample, at which the absorbance is one half (i.e., l/2) of that obtained in the absence of the inhibitor sample, is determined.

bovine trypsin = target: T3, bovine trypsin (Bos taurus, UniProt P00760); test: Antitrypsin activity: inhibition of S-2238 decomposition; details: Table 2; substrate S-2238, pH 8.1, 37°C; read-out: Trypsin S-2238 (concentration I₅₀)
T3 sequence (P00760 24-246): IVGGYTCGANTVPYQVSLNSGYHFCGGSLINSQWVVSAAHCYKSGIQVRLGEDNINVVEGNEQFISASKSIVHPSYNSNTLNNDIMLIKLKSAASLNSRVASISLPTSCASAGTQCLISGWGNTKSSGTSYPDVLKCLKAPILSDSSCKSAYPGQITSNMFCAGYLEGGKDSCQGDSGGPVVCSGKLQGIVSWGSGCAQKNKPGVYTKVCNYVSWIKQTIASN
Procedure: Determination of inhibition activity against S-2238 decomposition An inhibitor sample is dissolved in a 0.05 M Tris-imidazole buffer solution (pH = 8.l) and l25 µl of a l mM S-2238 solution is added to bring the total volume to l.20 ml. The mixture is incubated at a temperature of 37°C for 5 minutes in a constant temperature bath. To this mixture, 0.05 ml of bovine trypsin is added and the absorbance, at 405 nm, of the p-nitroaniline formed per minute is determined at a temperature of 37°C by using the so-called initial velocity method. Thus, the concentration I₅₀ (µmol) of the inhibitor sample, at which the absorbance is one half (i.e., l/2) of that obtained in the absence of the inhibitor sample, is determined.

T1 sequence (P00747 581-810 limits assumed): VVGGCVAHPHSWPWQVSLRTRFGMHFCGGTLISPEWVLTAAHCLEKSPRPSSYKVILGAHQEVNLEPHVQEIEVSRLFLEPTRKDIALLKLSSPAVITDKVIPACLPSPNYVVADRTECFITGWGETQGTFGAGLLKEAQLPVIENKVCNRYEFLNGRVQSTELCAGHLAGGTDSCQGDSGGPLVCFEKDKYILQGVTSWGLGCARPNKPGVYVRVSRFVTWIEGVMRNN
T1 sequence (P00747 97-580 partner limits assumed): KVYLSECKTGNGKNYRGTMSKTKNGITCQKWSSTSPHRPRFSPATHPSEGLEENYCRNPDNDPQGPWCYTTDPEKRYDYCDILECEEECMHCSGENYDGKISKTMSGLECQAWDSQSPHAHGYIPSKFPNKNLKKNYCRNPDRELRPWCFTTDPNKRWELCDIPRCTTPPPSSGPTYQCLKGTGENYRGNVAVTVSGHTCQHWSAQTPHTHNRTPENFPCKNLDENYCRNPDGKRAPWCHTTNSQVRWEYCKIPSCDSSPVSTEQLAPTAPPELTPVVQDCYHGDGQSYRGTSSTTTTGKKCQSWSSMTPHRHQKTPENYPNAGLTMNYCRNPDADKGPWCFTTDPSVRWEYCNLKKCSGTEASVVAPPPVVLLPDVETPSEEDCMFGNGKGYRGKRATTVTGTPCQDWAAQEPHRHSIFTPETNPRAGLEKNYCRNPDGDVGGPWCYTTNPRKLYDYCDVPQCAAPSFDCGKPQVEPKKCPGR

IC50 (human plasmin [1]) | IC50 (human plasmin [2]) | IC50 (bovine thrombin [3]) | IC50 (human urokinase) | IC50 (bovine thrombin [4]) | IC50 (human plasma kallikrein) | IC50 (bovine trypsin) | SMILES
> 1000 µM | > 1000 µM | > 1000 µM | > 1000 µM | > 1000 µM | > 1000 µM |  | COC(=O)[C@@H]1CCCN1C(=O)[C@H](Cc1ccccc1)NC(=O)c1ccc(NC(=N)N)cc1 [compound 22]
> 500 µM | > 500 µM | > 500 µM | > 500 µM | > 500 µM | > 500 µM |  | CCOC(=O)CC(O)CNC(=O)[C@H](Cc1ccccc1)NC(=O)CCCCCN (stereo partly drawn) [compound 5]
> 100 µM | 120 µM | > 200 µM |  | > 100 µM |  | 75 µM | NCCCCC(=O)N[C@@H](Cc1ccccc1)C(=O)Nc1ccc(C(=O)c2ccccc2)cc1 [Compound No. 2, N-(5-aminovaleryl)-L-phenylalanine 4-benzoylanilide]
> 200 µM | > 400 µM | 330 µM | 190 µM | > 500 µM | 2.2 µM | 14 µM | CC(=O)c1ccc(NC(=O)[C@H](Cc2ccccc2)NC(=O)c2ccc(NC(=N)N)cc2)cc1 [compound 15]
